How the values were obtained:
[1] = test system: human colon cancer cell line (Col2); assay: Inhibition of cancer cell line proliferation, Col2; type: cell-based; settings: 96 h, 3˜4 days incubation, absorbance at 515 nm
Description: (§1) For measuring the proliferation inhibition by indirubin compound, the method disclosed in K. Likhitwitayawuid et al. Journal. Nat. Prod. […] Followings are simple description of this method. The cancer cell line is diluted into 5×10^4 cfu/ml. Then, various concentrations of test compounds are added to 96 well microtiter plate containing diluted cell line. After incubating test plate for 3˜4 days at 37° C., the test plate is dried and Tris-base is added. Then, using ELISA plate detector, the absorbance at 515 nm is measured. IC50 is measured by non-linear regression method.

[2] = test system: leukemia cell line (HL-60); assay: Differentiation inducing effect, NBT reduction method; type: cell-based, human; settings: 3 days
Description: For measuring the differentiation inducing effect to acute bone merrow leukemia cell line (HL-60) by indirubin AGM compound, NBT (nitroblue tetrazolium) reduction reaction method is employed. The leukemia cell line is diluted into 2×10^5 cfu/ml. […] Incubated cells are washed with phosphate buffered saline (PBS). Then, they are further incubated in PBS solution containing 0.1% NBT and 200 ng/ml of PMA (phorbol 12-myristate 13-acetate) for 30 minutes at 37° C. Incubated cells are centrifuged and collected cells are washed with PBS solution. Using cell number counter, differentiated cells forming nitroblue formazan among total cells are counted.

[3] = test system: human stomach cancer cell line (SNU-638); assay: Inhibition of cancer cell line proliferation, SNU-638; type: cell-based; settings: 96 h, 3˜4 days incubation, absorbance at 515 nm
Description: as §1

[4] = test system: human leukemia cell line (HL-60); assay: Differentiation with low concentration 1,25-(OH)2D3 or ATRA, NBT reduction method; type: cell-based; settings: for % of Differentiation, 1,25-(OH)2D3: 1 μM compound with 5 nM of 1,25-(OH)2D3; for % of Differentiation, all-trans RA: 1 μM compound with 50 nM of ATRA
Description: For measuring the differentiation inducing effect to acute bone merrow leukemia cell line (HL-60) by indirubin AGM compound, NBT (nitroblue tetrazolium) reduction reaction method is employed. The leukemia cell line is diluted into 2×10^5 cfu/ml. After treating 20 μM and 1 μM concentrations of test compounds, test plate is incubated for 3 days at 37° C. in 5% CO2 incubator. Incubated cells are washed with phosphate buffered saline (PBS). Then, they are further incubated in PBS solution containing 0.1% NBT and 200 ng/ml of PMA (phorbol 12-myristate 13-acetate) for 30 minutes at 37° C. Incubated cells are centrifuged and collected cells are washed with PBS solution. Using cell number counter, differentiated cells forming nitroblue formazan among total cells are counted.
Next, we test if AGM compound of present invention can synergically induce the differentiation of acute bone merrow leukemia cell line when it is treated with low concentration of 1,25-dihydroxyvitamin D3[1,25-(OH)2D3] or all-trans retinoic acid (ATRA) known as differentiation inducing agent. […] […] As a positive control, conventional differentiation inducing agent is used.

[5] = test system: human lung cancer cell line (A549); assay: Inhibition of cancer cell line proliferation, A549; type: cell-based; settings: 96 h, 3˜4 days incubation, absorbance at 515 nm
Description: as §1

[6] = test system: human abdominal cavity cancer cell line (HT 1080); assay: Inhibition of cancer cell line proliferation, HT 1080; type: cell-based; settings: HT-1080, 96 h, HT108, 3˜4 days incubation, absorbance at 515 nm
Description: as §1

[7] = test system: human leukemia cell line (HL-60); assay: Inhibition of cancer cell line proliferation, HL-60; type: cell-based; settings: HL-60, 96 h, HL60, 3˜4 days incubation, absorbance at 515 nm
Description: as §1

[8] = test system: human cell line (HT 1080); assay: Inhibition of cancer cell line proliferation, HT 1080; type: cell-based; settings: HT-1080, 96 h, read-out: IC50 HT108
Description: as §1

SMILES	IC50 [1]	% of Differentiation ([2]; 1 μM compound)	% of Differentiation ([2]; 20 μM compound)	IC50 [3]	% of Differentiation, 1,25-(OH)2D3 [4]	% of Differentiation, all-trans RA [4]	IC50 [5]	IC50 [6]	IC50 [7]	IC50 [8]
O=C1Nc2ccccc2C1=C1Nc2ccccc2C1=O [AGM001, 1H,1′H-[2,3′] biindolylidene-3,2′-dione]	> 100 µM	7.76 ± 3.42%	10.00 ± 0.27%	> 100 µM	28.36 ± 0.15%	39.61 ± 1.25%	31 µM	42.2 µM	–	–
O=C1Nc2ccccc2C1=C1Nc2ccccc2C1=NO [AGM002, 1H,1′H-[2,3′] biindolylidene-3,2′-dione 3-oxime]	> 100 µM	11.12 ± 0.31%	6.78 ± 0.40%	> 100 µM	24.52 ± 2.67%	37.78 ± 1.06%	62 µM	4.8 µM	–	–
O=C1Nc2ccc(OC(F)(F)F)cc2C1=C1Nc2ccccc2C1=O [AGM003]	–	6.27 ± 1.76%	10.36 ± 0.29%	–	22.04 ± 0.38%	41.01 ± 1.26%	–	–	–	–
O=C1Nc2ccc(OC(F)(F)F)cc2C1=C1Nc2ccccc2C1=NO [AGM004]	–	22.81 ± 2.38%	–	–	26.36 ± 3.05%	28.68 ± 0.23%	–	–	–	–
CC(=O)N1C(=C2C(=O)Nc3ccccc32)C(=O)c2ccccc21 [AGM006, 1-acetyl-1H,1′H-[2,3′] biindolylidene-3,2′-dione]	> 100 µM	9.99 ± 1.47%	10.49 ± 0.25%	> 100 µM	19.60 ± 0.56%	42.81 ± 1.05%	> 100 µM	> 100 µM	> 100 µM	–
O=C1Nc2ccc([N+](=O)[O-])cc2C1=C1Nc2ccccc2C1=O [AGM009, 5′-nitro-1H,1′H-[2,3′] biindolylidene-3,2′-dione]	> 100 µM	19.94 ± 2.02%	29.26 ± 1.59%	> 100 µM	48.51 ± 3.49%	59.32 ± 1.54%	> 100 µM	> 100 µM	> 100 µM	–
O=C1Nc2ccc(F)cc2C1=C1Nc2ccccc2C1=O [AGM010, 5′-fluoro-1H,1′H-[2,3′] biindolylidene-3,2′-dione]	> 100 µM	7.53 ± 1.02%	13.01 ± 0.14%	40.3 µM	78.44 ± 6.88%	75.08 ± 6.80%	96.8 µM	–	> 100 µM	> 100 µM
Cc1ccc2c(c1)C(=C1Nc3ccccc3C1=NO)C(=O)N2 [AGM013, 5′-methyl-1H,1′H-[2,3′] biindolylidene-3,2′-dione 3-oxime]	> 100 µM	26.22 ± 2.04%	–	17.6 µM	35.49 ± 5.45%	70.54 ± 2.17%	20.4 µM	36.7 µM	65.4 µM	–
O=C1Nc2ccc(I)cc2C1=C1Nc2ccccc2C1=NO [AGM015, 5′-iodo-1H,1′H-[2,3′] biindolylidene-3,2′-dione 3-oxime]	> 100 µM	30.50 ± 4.97%	–	> 100 µM	33.27 ± 0.75%	67.41 ± 1.36%	> 100 µM	> 100 µM	> 100 µM	–
Cc1cc(C)c2c(c1)C(=C1Nc3ccccc3C1=NO)C(=O)N2 [AGM016, 5′,7′-dimethyl-1H,1′H-[2,3′] biindolylidene-3,2′-dione 3-oxime]	> 100 µM	3.07 ± 1.69%	10.35 ± 0.62%	90.6 µM	27.24 ± 1.32%	33.99 ± 0.47%	> 100 µM	> 100 µM	> 100 µM	–
Cc1cc(Cl)cc2c1NC(=O)C2=C1Nc2ccccc2C1=NO [AGM017, 5′-chloro-7′-methyl-1H,1′H-[2,3′] biindolylidene-3,2′-dione 3-oxime]	> 100 µM	8.37 ± 0.45%	2.62 ± 0.23%	> 100 µM	22.10 ± 0.90%	43.17 ± 1.56%	> 100 µM	–	> 100 µM	> 100 µM
O=C1Nc2ccccc2C1=C1Nc2ccc(Br)cc2C1=NO [AGM018, 5-bromo-1H,1′H-[2,3′] biindolylidene-3,2′-dione 3-oxime]	10.5 µM	8.69 ± 4.95%	–	32.9 µM	36.52 ± 1.27%	23.13 ± 0.71%	38.6 µM	73.6 µM	25 µM	–
O=C1Nc2ccc(S(=O)(=O)[O-])cc2C1=C1Nc2ccccc2C1=O.[Na+] [AGM019, 3,2′-dioxo-1,3,1′,2′-tetrahydro-[2,3′] biindolylidene-5′-sodium sulfonate]	–	9.36 ± 0.13%	12.44 ± 1.66%	–	27.66 ± 1.28%	51.49 ± 0.13%	–	–	–	–
O=C1Nc2ccc(S(=O)(=O)[O-])cc2C1=C1Nc2ccccc2C1=NO.[Na+] [AGM020, 3-hydroxyimino-2′-oxo-1,3,1′,2′-tetrahydro-[2,3′] biindolylidene-5′-sodium sulfonate]	–	11.34 ± 2.32%	23.86 ± 1.31%	–	23.34 ± 0.65%	34.50 ± 2.91%	–	–	–	–
O=C1Nc2ccccc2C1=C1Nc2ccc(Br)cc2C1=O [AGM021, 5-bromo-1H,1′H-[2,3′] biindolylidene-3,2′-dione]	> 100 µM	11.63 ± 3.48%	9.64 ± 0.51%	> 100 µM	24.64 ± 0.65%	28.23 ± 0.02%	> 100 µM	> 100 µM	> 100 µM	–
O=C1Nc2ccc([N+](=O)[O-])cc2C1=C1Nc2ccc(Br)cc2C1=O [AGM022]	–	18.35 ± 0.02%	22.89 ± 0.51%	–	48.28 ± 0.36%	51.20 ± 3.70%	–	–	–	–
Cc1ccc2c(c1)C(=C1Nc3ccccc3C1=O)C(=O)N2 [AGM024, 5′-methyl-1H,1′H-[2,3′] biindolylidene-3,2′-dione]	> 100 µM	24.89 ± 6.06%	14.38 ± 0.42%	> 100 µM	41.66 ± 0.40%	51.01 ± 0.88%	> 100 µM	–	> 100 µM	> 100 µM
Nc1ccc2c(c1)C(=C1Nc3ccccc3C1=NO)C(=O)N2 [AGM031, 5′-amino-1H,1′H-[2,3′] biindolylidene-3,2′-dione-3-oxime]	24.6 µM	–	–	10 µM	–	–	9.13 µM	–	13 µM	5.07 µM
O=C1Nc2ccccc2/C1=C1/Nc2ccccc2C1=O [Indirubin]	–	15.28 ± 1.12%	1.18 ± 0.18%	–	26.39 ± 0.98%	44.87 ± 2.54%	–	–	–	–
